From patent publication US20080226596A1, “Therapeutic compositions and methods useful in treating hepatitis” (priority 2006, published 2008) come the findings set out here.

Structures are written as SMILES.

The subject of one assay is TF-1 cells. The assay is described as follows: TF-1 cell proliferation assay. The class given is cell-based, human. As to the method: The murine hematopoietic cell line Baf3 was maintained in RPMI 1640 medium supplemented with 10% fetal calf serum (FCS) and murine IL-3 (20 units/ml) as described previously in Damen et al., J. Biol. Chem. 270, 23402 (1995). Human myeloid cell line TF-1 was maintained in RPMI 1640 supplemented with 10% FCS and 40 ng/ml of recombinant human GM-CSF as described previously in Thomassen et al., Clin. Immunol. 95, 85 (2000). For cell proliferation assays, cells were washed in 10% FCS medium twice, resuspended in 10% FCS medium, incubated at 37° C. for 16 hours, and then cultured at 37° C. in 10% FCS medium containing various amounts of cytokines, sodium stibogluconate, or potassium antimonyl tartrate for 3-6 days as indicated. The cell numbers in proliferation assays were determined by an MTT assay or by microscopic cell counting as indicated.

Assay [1] has as its system Stat1 tyrosine phosphorylation. Description: IFN-alpha-induced Stat1 tyrosine phosphorylation in human cancer cell lines. The class given is cell-based. As for the experimental part: Cell lysates were prepared by lysing cells in cold lysis buffer for 30 min and cleared by centrifuging at 14,000 rpm at 4° C. for 15 min. For SDS-PAGE, cell lysates were mixed with equal volume of 2×SDS-PAGE sample buffer, heated at 90° C. for 5 min and separated in 10% SDS-PAGE gels. Cellular proteins in SDS-PAGE gels were transferred to nitrocellulose membrane (Schleicher & Schuell, Keene, N.H.), blocked in 5% milk, probed with antibodies and detected by using an enhanced chemiluminescence kit (ECL, Amersham, Arlington Heights, Ill.).

The subject of another assay is Renca cells. The assay is described as follows: Renca cell growth in culture, MTT assay. The assay is classed as cell-based, murine. The settings on record: SSG 6.25-200 μg/ml, 6 days; listed as SSG. The source says: Renca (Murphy, G. P., and W. J. Hrushesky. 1973. A murine renal cell carcinoma. J Natl Cancer Inst 50:1013), Jurkat (Gillis, S., and J. Watson. 1980. Biochemical and biological characterization of lymphocyte regulatory molecules. V. Identification of an interleukin 2-producing human leukemia T cell line. J Exp Med 152:1709) and WM9 (Forsberg, K., I. Valyi-Nagy, C. H. Heldin, M. Herlyn, and B. Westermark. 1993. Platelet-derived growth factor (PDGF) in oncogenesis: development of a vascular connective tissue stroma in xenotransplanted human melanoma producing PDGF-BB. Proc Natl Acad Sci USA 90:393) cell lines were obtained from a colleague at the Cleveland Clinic Foundation (CCF) and cultured in RPMI 1640 medium supplemented with 10% fetal calf serum (FCS). […] SSG has been described previously (Yi, T., M. K. Pathak, D. J. Lindner, M. E. Ketterer, C. Farver, and E. C. Borden. 2002. Anticancer activity of sodium stibogluconate in synergy with IFNs. J Immunol 169:5978). For cell growth inhibition assays, cells were cultured in absence or presence of various amounts of SSG for 6 days with viable cells quantified by MTT assays as described elsewhere (Pathak, M. K., and T. Yi. 2001. Sodium stibogluconate is a potent inhibitor of protein tyrosine phosphatases and augments cytokine responses in hemopoietic cell lines. J Immunol 167:3391).

The test system of a further assay is A549 cells. The assay is described as follows: A549 lung cancer cell growth, MTT assay. The class given is cell-based, human. The settings on record: 100 μg/ml, day 6. As for the experimental part: (§1) NIH3T3 (Yi, et al., Blood 85, 87 (1995)), WM9 (Forsberg, et al., Proc. Nat. Acad Sci. USA 90, 393 (1993)), DU145 (Mickey, et al., Cancer Res. 37, 4049 (1977)), LoVo (Drewinko, et al., Cancer Res. 36, 467 (1976)), HEY (Buick, et al., Cancer Res. 45, 3668 (1985)), U251 (Yoshida, et al., Cancer 50, 410 (1982)), A549 (Giard, et al., J. Natl. Cancer Inst. 51, 1417 (1973)) and SK-N-SH (Helson, et al., Cancer Res. 35, 2594 (1975)) cell lines have been described and were cultured in RPMI 1640 supplemented with 10% fetal calf serum (FCS). For measurement of sodium stibogluconate effects on cell growth in vitro, cells were cultured in the absence (−) or presence (+) of various amounts of sodium stibogluconate for 6 days with viable cells quantified by MTT assays (Mosmann, J. Immunol. Methods 65, 55 (1983)). Percentages of growth inhibition by sodium stibogluconate were calculated (.+−.x
In general terms: Tetrazolium assays rely on reduction of a dye to a coloured formazan, in cell work by metabolically active cells.

Another assay has as its system U251 cells. The assay is described as follows: U251 glioma cell growth, MTT assay. The class given is cell-based, human. The settings on record: 100 μg/ml, day 6. As for the experimental part: as §1
The subject of a further assay is DU145R cells. The assay is described as follows: DU145R cell growth, MTT assay. The assay is classed as cell-based, human. The conditions noted are these: day 6, compared with parental DU145. As to the method:
DU145 cells were cultured in the presence of sodium stibogluconate (100 µg/ml) in 48 well plates for 3 weeks. Cells from a well containing a single colony were transferred to flasks, cultured in sodium stibogluconate-free medium for 3 weeks and used as DU145R cells for further characterization. Growth of DU145R cells in the absence or presence of sodium stibogluconate in day 6 culture was determined by MTT assays. cDNAs of the coding region of PRLs were derived by RT-PCR from DU145 and DU145R cells and sequenced using primers described below.

The next assay deals with WM9 transfectants. The assay is described as follows: Growth of WM9 transfectants, MTT assay. The class given is cell-based, human. The settings on record: 50 or 100 μg/ml, 6 days. As to the method:
as §1
The effects of sodium stibogluconate on intracellular PTPases were assessed using NIH3T3 or WM9 transfectants. NIH3T3 or WM9 cells were transfected with the pBabepuro vector (V) or pBabepuro expression constructs of Flag-tagged PRLs using Lipofectamine (BRL) following the manufacturer's procedures. […]

For `O.O.O.O.O.O.O.O.O.O=C([O-])[C@@H]1[O][Sb]2([O-])([O][Sb]34([OH])[O][C@H]([C@H](O)CO)[C@H]([O]3)[C@H](C(=O)[O-])[O]4)[O][C@H]([C@H](O)CO)[C@@H]1[O]2.[Na+].[Na+].[Na+]` [sodium stibogluconate], the “effect on GM-CSF-induced cell growth” value with TF-1 cells (12.5-50 μg/ml) was “no negative effect on GM-CSF-induced cell growth”. Besides, in the assay with TF-1 cells (sodium stibogluconate 50 μg/ml, GM-CSF 5-40 ng/ml), the “GM-CSF-induced TF-1 proliferation” value is listed as “augmented”. For the same molecule, the “Stat1 tyrosine phosphorylation by drug alone” value in assay [1] (DR cells, absence of IFN-alpha) is “failed to induce Stat1 tyrosine phosphorylation”. Further, the “IFN-alpha-induced Stat1 tyrosine phosphorylation” value was “Enhanced” in assay [1] (DU145 cells, 5 hours post-stimulation); “Enhanced” in assay [1] (WM9 cells, 5 hours post-stimulation); “failed to enhance” in assay [1] (WM35 cells); “failed to enhance” in assay [1] (WiT49-N1 cells). Also, in the assay on Renca cells, the “Renca cell growth in culture” value is listed as “failed to inhibit Renca cell proliferation in culture”. The “killing of A549 cells” value in the assay on A549 cells is “near-complete cell killing”. For the same molecule, the “killing of U251 cells” value in the assay on U251 cells is recorded as “near-complete cell killing”. The “growth of DU145R cells with sodium stibogluconate” value in the assay with DU145R cells was “growth resistance to sodium stibogluconate”. Further, the “growth of R86 cells” value in the assay on WM9 transfectants is “only modest growth inhibition”.
